Assay [1] has as its target T1, Sodium-dependent dopamine transporter (Rattus norvegicus, UniProt P23977). The experiment in a line: Inhibitory constant towards reuptake of [125I]-12 from dopamine transporter in rat striatal membranes. The assay is classed as cell membranes, Membrane.
The target in assay [2] is T1, Sodium-dependent dopamine transporter. The experiment in a line: Inhibitory constant towards reuptake of [125I]-13 from dopamine transporter in rat striatal membranes. The assay is classed as cell membranes, Membrane.

Here are results for 1 molecule from ChEMBL document CHEMBL1127517 (J Med Chem, 1994).

T1 sequence (P23977 whole entry): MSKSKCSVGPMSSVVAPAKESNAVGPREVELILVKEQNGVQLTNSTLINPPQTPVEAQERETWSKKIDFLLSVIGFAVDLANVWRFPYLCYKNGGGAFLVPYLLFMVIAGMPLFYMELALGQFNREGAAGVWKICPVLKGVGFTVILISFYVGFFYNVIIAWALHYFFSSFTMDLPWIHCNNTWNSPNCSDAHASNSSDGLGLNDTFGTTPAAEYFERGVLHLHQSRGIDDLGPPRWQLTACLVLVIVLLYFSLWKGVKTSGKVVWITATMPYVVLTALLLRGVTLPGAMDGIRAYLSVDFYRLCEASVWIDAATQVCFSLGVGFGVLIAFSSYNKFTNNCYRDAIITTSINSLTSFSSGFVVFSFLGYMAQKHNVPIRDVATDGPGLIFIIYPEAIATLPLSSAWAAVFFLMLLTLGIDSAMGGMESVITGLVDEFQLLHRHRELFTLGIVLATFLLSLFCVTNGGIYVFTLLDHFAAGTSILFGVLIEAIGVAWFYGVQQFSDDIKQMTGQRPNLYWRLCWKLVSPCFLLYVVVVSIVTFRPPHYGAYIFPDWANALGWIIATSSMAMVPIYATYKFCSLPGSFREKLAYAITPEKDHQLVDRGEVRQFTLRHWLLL

As to `OC1(c2ccc(Cl)cc2)c2ccccc2C2=NCCN21` (configuration not stated) [MAZINDOL], the Ki is 32 nM in assay [1] and 41.6 nM in assay [2].

One may read the Ki as a dissociation constant, usually derived from enzyme kinetics or from competition with a known ligand.
